{
  "source": "paper PMC10644720",
  "about": "(Frontiers in Pharmacology, 2023)",
  "key": {"[1]": {"tested_on": "human washed platelets", "assay": "Platelet aggregation assay (Chrono-Log aggregometer)", "format": "cell-based", "settings": "for IC50: Homo sapiens, Platelet, 10 min, 10 min incubation at 37°C", "method": "Blood was collected from a median cubital vein using a 3.8% sodium citrate anticoagulation tube with a 1:9 dilution ratio. The platelets were washed using a previously described method with slight modification ([Babur et al., 2020]; [Uphaus et al., 2022]). The blood was centrifuged at room temperature at 300 × g for 10 min to separate platelet-rich plasma (PRP). PRP was added to 50 ng/mL of PGE1 and 5 mM EDTA, centrifuged at 2,000 × g for 2 min at room temperature, and the platelet precipitate was obtained after discarding the supernatant. The modified HEPES-Tyrode’s buffer (20 mM 4-(2-Hydroxyethyl)-1-piperazine ethane sulfonic acid [HEPES], pH 7.3, 129 mM NaCl, 2.9 mM KCl, 12 mM NaHCO3, 0.34 mM Na2HPO4, 20 mM HEPES, 5 mM D-Glucose, 1 mM MgCl2) was used to resuspend the platelets, added with 50 ng/mL PGE1 and 5 mM EDTA, and the platelets were washed by centrifugation at 2,000 ×g for 2 min at room temperature. The washed platelets (WP) were resuspended using modified HEPES-Tyrode’s buffer, and the platelet count was adjusted to 150–200 × 10^9/L.\nPlatelet aggregation and ATP release were detected using the Chrono-Log platelet aggregation instrument (Chrono-Log Corp., Havertown, Pennsylvania, United States), as previously reported ([Babur et al., 2020]). […] In addition, 1 mM CaCl2 and different platelet activators (ADP, collagen, and thrombin; Chrono-Log Corp., Havertown, Pennsylvania, United States; U46619, from Sigma, St. Louis, MO, United States; convulxin, sc-202554 from Santa Cruz Biotechnology, Santa Cruz, CA, United States) were added to each group before the start of the aggregation assay. For the ATP release experiments, the platelets were incubated with 50 ng/mL luciferin and D-luciferase (Cat No. 395; Chrono-Log Corp.) for 2 min before the addition of activators. The platelet aggregation and ATP release curves were traced during experiments."}, "[2]": {"tested_on": "integrin αIIbβ3", "assay": "PAC-1 expression (integrin αIIbβ3 activation) by flow cytometry", "format": "cell-based, human", "settings": "collagen- and convulxin-induced", "method": "Platelet membrane protein expression experiments were performed as previously reported, with slight modifications ([Babur et al., 2020]). WPs were added with 10 μM indomethacin to prevent platelet aggregation. After incubation, the WPs were activated by adding 1 mM calcium chloride and agonists to platelets at 37°C. After 30 min, 10 μL of WPs was taken, and the reaction was terminated by adding 90 μL Tyrode’s buffer and 10 mM EDTA. PerCP-coupled anti-CD61 antibody (1:50; Cat No. 336410; Biolegend, San Diego, CA, United States), Alexa Fluor® 647 labeled PAC-1 (1:50; Cat No. 362806; BioLegend), and FITC-coupled anti-CD62p antibody (1:50; Cat No. 555523; BD Biosciences, San Diego, CA, United States) were incubated with platelets for 30 min at 37°C in the dark. The platelet surface fluorescence intensity was analyzed using a FacsCanto II flow cytometer (BD Biosciences, San Diego, CA, United States) to analyze the expression of platelet surface membrane proteins. Cell membrane protein expression data were analyzed using FlowJo software V10."}, "[3]": {"tested_on": "human washed platelets", "assay": "Platelet-fibrinogen spreading assay", "format": "cell-based", "settings": "25 μg/mL fibrinogen-coated slides", "method": "As previously reported ([Banfi et al., 2022]), 50 μg/mL collagen and 25 μg/mL fibrinogen (Cat No. F3879-100 MG; Sigma-Aldrich, St. Louis, MO, United States) were used to coat coverslips overnight at 4°C. […] The coated slides were washed three times with PBS and blocked with 1% BSA (prepared in PBS) for 1 h at room temperature. The blocking solution was removed, and WPs were added for adhesion experiments. The WPs were allowed to adhere to the slides for 15–60 min at 37°C. The unadhered platelets were removed by PBS. The platelets were fixed with 2% paraformaldehyde solution for 15 min, broken using 1% Triton-100 for 5 min, and stained with phalloidin (1:1,000, Cat No.17466-45-4, Sigma-Aldrich) for 30 min away from light at room temperature. The platelet morphology was observed using an Olympus ix73 microscope (Olympus Corp., Shinjuku, Japan) and photographed. The number of platelet adhesions and spreading area were analyzed and calculated using ImageJ software."}, "[4]": {"biological_target": "T1, Recombinant human GPVI protein (Homo sapiens, UniProt Q9HCN6)", "T1 construct": "purchased MedChemExpress HY-P70180", "T1 sequence (Q9HCN6 21-267 limits assumed)": "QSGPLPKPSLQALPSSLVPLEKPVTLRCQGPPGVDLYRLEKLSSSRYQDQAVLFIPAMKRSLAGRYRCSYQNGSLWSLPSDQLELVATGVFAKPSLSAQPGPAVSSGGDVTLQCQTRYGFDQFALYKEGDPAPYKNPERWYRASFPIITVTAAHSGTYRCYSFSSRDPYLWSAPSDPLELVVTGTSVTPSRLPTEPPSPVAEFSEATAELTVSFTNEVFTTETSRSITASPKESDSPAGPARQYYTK", "assay": "Surface plasmon resonance (SPR)", "settings": "Biacore S200, 25°C, 1:1 binding model", "method": "The SPR experiment was performed on a Biacore S200 instrument (GE Healthcare; Uppsala, Sweden) at 25°C. Recombinant human GPVI protein, rhGPVI (Cat. HY-P70180; MedChemExpress), was immobilized at the level of 4,400 response units, with 10 mM sodium acetate buffer (pH 4.5) on a Series S CM5 Sensor Chip (Cat. 29104988; cytiva) at the concentration of 50 μg/mL."}, "[5]": {"tested_on": "mesenteric artery thrombosis", "assay": "Ferric chloride-induced mesenteric thrombosis in mice", "format": "in vivo, C57BL/6 mice", "settings": "luteolin 35 μM/kg or aspirin 0.5 mM/kg i.p., 30 min before FeCl3", "method": "A method reported in the literature was used to observe mesenteric artery thrombosis in mice ([Bonnard and […], 2015]). […] The mice were anesthetized by an intraperitoneal injection of pentobarbital (45 mg/kg). They were given an intraperitoneal injection of DMSO, luteolin, or aspirin. They were also given an orbital vein injection of 5 μg/kg rhodamine (Cat No. 83697-250 MG; Sigma-Aldrich, St. Louis, MO, United States) ([Bonnard and […], 2015]), respectively. The mesenteric vessels were exposed by opening the abdominal cavity, and small mesenteric arteries with a diameter of approximately 150-250 μm were selected under the microscope. […] During thrombosis, images were taken every 1 min for the first 10 min and every 5 min after 10 min using an MSHOT MD50 camera (Micro Shot Technology Ltd., Guangzhou, China) and an Olympus ix73 microscope (Olympus Corp., Shinjuku, Japan). […] The size of the thrombus formation was calculated using ImageJ software."}},
  "note": "Like-named read-outs stand apart in the source and are kept apart here.",
  "data": [
    {"smiles": "O=c1cc(-c2ccc(O)c(O)c2)oc2cc(O)cc(O)c12", "note": "[Luteolin]", "values": [
      {"measurement": "effect on platelet aggregation", "setting": "[1]; 25 μM luteolin, ADP (5 μM)-induced", "value": "no significant effect"},
      {"measurement": "effect on platelet aggregation", "setting": "[1]; 25 μM luteolin, U46619 (3 μM)-induced", "value": "no significant effect"},
      {"measurement": "effect on platelet aggregation", "setting": "[1]; 25 μM luteolin, thrombin (0.05 U/mL)-induced", "value": "no significant effect"},
      {"measurement": "effect on platelet aggregation", "setting": "[1]; 100 μM luteolin, U46619-induced", "value": "significantly inhibited"},
      {"measurement": "IC50", "setting": "[1]; read-out: IC50, inhibition of platelet aggregation, convulxin (5 ng/mL)-induced", "value": 8.66, "unit": "µM"},
      {"measurement": "IC50", "setting": "[1]; collagen (10 μg/mL)-induced, read-out: IC50, inhibition of platelet aggregation", "value": 4.81, "unit": "µM"},
      {"measurement": "PAC-1 expression (integrin αIIbβ3 inside-out activation)", "setting": "[2]", "value": "dose-dependently inhibited"},
      {"measurement": "platelet spreading on fibrinogen", "setting": "[3]", "value": "inhibited"},
      {"measurement": "K a", "setting": "[4]", "value": "7,227 m^−1s^−1"},
      {"measurement": "K d", "setting": "[4]", "value": 0.03, "unit": "s⁻¹"},
      {"measurement": "Kd", "setting": "[4]", "value": 4.13, "unit": "µM"},
      {"measurement": "time of clot obstruction of blood vessels", "setting": "[5]", "value": "significantly prolong"},
      {"measurement": "time of initial thrombus formation", "setting": "[5]", "value": "Neither the 0.5 mM/kg aspirin group or 35 μM/kg luteolin group prolonged"}
    ]}
  ]
}
